For orientation: Ki means the equilibrium dissociation constant of an inhibitor or competing ligand from its target.

This is an account of results in article PMC3090406, “Crystal Structures of Two Aminoglycoside Kinases Bound with a Eukaryotic Protein Kinase Inhibitor” (PLoS ONE, 2011).

In this assay the target is APH(9)-Ia (Legionella pneumophila, UniProt O06916). Description: biochemical.

Structures are written as SMILES.

APH(9)-Ia, sequence (O06916 1-331): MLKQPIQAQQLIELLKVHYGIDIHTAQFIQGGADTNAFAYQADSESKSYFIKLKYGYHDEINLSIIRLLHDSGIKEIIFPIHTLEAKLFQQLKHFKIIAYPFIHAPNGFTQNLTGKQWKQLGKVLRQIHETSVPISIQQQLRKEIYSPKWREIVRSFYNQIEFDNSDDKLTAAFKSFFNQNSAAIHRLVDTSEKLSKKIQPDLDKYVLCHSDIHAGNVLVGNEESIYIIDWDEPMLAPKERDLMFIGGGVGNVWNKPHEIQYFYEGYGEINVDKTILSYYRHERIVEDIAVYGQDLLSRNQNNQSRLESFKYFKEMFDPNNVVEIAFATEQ

Turning to `NCCNS(=O)(=O)c1ccc(Cl)c2ccncc12` [CKI-7, N-(2-aminoethyl)-5-chloro-isoquinoline-8-sulfonamide], the Ki was found to be 159 ± 11 µM.
